Article PMC11167047 (Cell Death Discovery, 2024)

Legend:
Assay in all cases: kinome screen (33PanQinase)
Type in all cases: biochemical
CDK5/p35NCK = biological target: T1, CDK5/p35NCK (Homo sapiens, UniProt Q00535)
T1 construct: purchased Reaction Biology Europe GmbH (formerly ProQinase)
Procedure: (§1) The Kinome Screening was performed by Reaction Biology Europe GmbH (http://reactionbiology.com; Freiburg i. Br., Germany).

CAMK2A = biological target: T2, CAMK2A (Homo sapiens, UniProt Q9UQM7)
T2 construct: purchased Reaction Biology Europe GmbH (formerly ProQinase)
T2 sequence (Q9UQM7 whole entry): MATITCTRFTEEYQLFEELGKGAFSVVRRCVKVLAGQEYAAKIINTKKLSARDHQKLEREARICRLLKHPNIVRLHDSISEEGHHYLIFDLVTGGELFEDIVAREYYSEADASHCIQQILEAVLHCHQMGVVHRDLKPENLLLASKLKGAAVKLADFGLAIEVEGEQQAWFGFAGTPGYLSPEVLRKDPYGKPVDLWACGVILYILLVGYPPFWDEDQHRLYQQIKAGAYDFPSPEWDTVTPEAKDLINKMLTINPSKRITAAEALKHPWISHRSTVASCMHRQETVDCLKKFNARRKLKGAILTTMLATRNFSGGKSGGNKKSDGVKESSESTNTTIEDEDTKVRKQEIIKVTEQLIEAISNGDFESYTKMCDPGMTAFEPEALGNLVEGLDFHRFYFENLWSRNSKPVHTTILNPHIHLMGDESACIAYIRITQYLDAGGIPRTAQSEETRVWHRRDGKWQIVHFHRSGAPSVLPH
Procedure: as §1

HIPK1 = biological target: T3, HIPK1 (Homo sapiens, UniProt Q86Z02)
T3 construct: purchased Reaction Biology Europe GmbH (formerly ProQinase)
T3 sequence (Q86Z02 whole entry): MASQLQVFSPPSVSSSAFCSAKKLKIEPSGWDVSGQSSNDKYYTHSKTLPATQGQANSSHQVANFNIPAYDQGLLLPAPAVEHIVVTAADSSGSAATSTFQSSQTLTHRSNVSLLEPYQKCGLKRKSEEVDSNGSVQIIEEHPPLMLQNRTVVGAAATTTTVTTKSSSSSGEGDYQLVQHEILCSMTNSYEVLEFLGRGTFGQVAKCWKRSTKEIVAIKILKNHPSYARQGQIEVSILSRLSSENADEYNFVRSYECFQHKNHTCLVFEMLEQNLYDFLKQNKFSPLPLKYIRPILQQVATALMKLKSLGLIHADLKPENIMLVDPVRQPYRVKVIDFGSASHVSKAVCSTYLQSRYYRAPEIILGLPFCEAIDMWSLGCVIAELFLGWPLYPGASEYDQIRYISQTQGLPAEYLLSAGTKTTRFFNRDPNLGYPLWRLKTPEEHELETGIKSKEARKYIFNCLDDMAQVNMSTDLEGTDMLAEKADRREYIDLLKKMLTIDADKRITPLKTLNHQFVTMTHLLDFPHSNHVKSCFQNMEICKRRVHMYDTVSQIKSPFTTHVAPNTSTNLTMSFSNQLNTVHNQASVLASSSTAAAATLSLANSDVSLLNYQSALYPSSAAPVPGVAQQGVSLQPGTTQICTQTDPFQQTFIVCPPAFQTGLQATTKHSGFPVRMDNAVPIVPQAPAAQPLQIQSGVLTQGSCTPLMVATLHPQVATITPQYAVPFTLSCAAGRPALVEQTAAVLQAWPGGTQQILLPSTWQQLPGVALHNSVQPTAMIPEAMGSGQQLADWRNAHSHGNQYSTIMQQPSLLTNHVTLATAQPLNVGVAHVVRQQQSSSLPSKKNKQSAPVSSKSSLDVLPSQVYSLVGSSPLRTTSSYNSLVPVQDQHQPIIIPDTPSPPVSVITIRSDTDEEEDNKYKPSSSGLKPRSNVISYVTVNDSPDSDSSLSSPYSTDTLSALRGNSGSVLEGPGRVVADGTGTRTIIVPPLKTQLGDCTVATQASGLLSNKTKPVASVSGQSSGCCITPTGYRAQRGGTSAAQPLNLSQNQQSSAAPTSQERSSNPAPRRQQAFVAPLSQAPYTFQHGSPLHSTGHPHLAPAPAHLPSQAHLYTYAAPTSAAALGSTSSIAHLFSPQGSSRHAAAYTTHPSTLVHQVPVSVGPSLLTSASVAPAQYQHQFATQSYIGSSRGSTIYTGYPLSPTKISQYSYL
Procedure: as §1

PRKG2 = biological target: T4, PRKG2 (Homo sapiens, UniProt Q13237)
T4 construct: purchased Reaction Biology Europe GmbH (formerly ProQinase)
T4 sequence (Q13237 1-762): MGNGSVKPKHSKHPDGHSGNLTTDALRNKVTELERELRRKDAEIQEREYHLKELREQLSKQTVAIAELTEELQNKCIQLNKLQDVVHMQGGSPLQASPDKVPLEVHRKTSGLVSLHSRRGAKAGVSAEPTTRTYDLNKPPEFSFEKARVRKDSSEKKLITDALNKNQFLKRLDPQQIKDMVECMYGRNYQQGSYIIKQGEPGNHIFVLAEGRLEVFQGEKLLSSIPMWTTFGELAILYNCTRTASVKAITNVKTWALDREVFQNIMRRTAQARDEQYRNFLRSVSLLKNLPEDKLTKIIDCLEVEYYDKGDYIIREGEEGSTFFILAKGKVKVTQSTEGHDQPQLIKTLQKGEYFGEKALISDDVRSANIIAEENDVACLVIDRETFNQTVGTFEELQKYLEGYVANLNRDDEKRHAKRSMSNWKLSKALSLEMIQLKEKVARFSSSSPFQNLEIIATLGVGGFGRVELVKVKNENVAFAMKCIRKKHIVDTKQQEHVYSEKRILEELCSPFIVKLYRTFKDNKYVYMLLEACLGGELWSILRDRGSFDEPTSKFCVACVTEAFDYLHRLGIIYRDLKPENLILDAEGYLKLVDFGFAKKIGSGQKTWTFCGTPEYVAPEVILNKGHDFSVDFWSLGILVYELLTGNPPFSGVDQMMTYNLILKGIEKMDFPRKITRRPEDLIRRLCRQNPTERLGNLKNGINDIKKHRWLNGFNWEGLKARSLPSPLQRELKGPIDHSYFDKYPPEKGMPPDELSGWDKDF
Procedure: as §1

BRSK1 = biological target: T5, BRSK1 (Homo sapiens, UniProt Q8TDC3)
T5 construct: purchased Reaction Biology Europe GmbH (formerly ProQinase)
T5 sequence (Q8TDC3 1-778): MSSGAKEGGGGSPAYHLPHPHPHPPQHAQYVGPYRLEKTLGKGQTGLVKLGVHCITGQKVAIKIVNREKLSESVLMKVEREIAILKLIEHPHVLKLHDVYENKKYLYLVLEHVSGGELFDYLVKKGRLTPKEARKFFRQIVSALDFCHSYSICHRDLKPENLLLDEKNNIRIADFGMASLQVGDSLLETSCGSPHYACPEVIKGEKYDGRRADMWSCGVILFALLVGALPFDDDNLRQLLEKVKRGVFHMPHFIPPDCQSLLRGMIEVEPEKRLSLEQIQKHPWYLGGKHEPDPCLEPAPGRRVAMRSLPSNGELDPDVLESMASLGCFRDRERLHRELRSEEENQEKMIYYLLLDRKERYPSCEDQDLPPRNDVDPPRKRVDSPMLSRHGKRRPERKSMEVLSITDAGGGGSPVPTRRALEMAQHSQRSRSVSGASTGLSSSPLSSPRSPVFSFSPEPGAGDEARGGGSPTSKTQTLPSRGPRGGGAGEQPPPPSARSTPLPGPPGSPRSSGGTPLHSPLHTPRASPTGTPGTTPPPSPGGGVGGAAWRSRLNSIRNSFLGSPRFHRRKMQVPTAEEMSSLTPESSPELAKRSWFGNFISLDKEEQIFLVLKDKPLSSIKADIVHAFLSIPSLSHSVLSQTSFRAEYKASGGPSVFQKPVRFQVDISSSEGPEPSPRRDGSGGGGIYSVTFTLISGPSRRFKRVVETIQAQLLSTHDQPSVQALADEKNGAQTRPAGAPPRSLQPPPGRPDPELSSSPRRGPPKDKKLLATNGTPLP
Procedure: as §1

MET = biological target: T6, MET (Homo sapiens, UniProt P08581)
T6 construct: purchased Reaction Biology Europe GmbH (formerly ProQinase)
T6 sequence (P08581 25-1390): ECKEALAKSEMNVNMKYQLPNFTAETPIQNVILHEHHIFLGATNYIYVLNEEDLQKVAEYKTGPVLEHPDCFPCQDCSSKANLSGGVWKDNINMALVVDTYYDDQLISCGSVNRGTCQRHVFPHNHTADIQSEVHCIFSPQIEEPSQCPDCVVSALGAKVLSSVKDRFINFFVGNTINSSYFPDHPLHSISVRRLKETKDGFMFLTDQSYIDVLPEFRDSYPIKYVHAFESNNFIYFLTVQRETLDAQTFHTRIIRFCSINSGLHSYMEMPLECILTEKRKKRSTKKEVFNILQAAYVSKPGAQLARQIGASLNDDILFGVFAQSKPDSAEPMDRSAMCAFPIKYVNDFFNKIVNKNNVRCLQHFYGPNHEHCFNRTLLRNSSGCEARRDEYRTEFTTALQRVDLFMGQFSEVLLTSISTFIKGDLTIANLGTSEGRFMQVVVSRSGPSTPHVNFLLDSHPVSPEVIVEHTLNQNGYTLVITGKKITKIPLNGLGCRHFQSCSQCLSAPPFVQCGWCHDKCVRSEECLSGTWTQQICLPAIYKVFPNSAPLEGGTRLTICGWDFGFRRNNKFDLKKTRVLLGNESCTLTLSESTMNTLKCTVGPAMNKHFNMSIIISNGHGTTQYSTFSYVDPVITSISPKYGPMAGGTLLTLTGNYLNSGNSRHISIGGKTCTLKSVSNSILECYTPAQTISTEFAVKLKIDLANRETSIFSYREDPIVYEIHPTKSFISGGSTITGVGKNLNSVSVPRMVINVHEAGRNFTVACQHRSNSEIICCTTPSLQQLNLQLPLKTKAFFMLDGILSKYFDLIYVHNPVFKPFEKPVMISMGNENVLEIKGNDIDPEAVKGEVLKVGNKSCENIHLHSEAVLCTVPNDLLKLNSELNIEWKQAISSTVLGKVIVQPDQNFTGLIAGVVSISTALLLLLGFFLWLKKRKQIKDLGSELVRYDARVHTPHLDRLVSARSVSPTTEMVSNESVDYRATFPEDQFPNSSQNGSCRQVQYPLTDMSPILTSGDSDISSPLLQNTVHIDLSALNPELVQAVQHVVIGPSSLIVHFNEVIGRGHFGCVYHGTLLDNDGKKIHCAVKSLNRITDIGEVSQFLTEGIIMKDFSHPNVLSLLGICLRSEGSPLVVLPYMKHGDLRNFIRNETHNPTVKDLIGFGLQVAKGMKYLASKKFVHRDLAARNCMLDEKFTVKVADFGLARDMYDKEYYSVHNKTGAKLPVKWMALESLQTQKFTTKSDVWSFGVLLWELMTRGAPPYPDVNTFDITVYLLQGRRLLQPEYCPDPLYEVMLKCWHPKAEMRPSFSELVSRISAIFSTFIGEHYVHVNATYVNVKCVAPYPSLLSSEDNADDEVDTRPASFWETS
Procedure: as §1

MAP3K10 = biological target: T7, MAP3K10 (Homo sapiens, UniProt Q02779)
T7 construct: purchased Reaction Biology Europe GmbH (formerly ProQinase)
Procedure: as §1

MUSK = biological target: T8, MUSK (Homo sapiens, UniProt O15146)
T8 construct: purchased Reaction Biology Europe GmbH (formerly ProQinase)
T8 sequence (O15146 24-869): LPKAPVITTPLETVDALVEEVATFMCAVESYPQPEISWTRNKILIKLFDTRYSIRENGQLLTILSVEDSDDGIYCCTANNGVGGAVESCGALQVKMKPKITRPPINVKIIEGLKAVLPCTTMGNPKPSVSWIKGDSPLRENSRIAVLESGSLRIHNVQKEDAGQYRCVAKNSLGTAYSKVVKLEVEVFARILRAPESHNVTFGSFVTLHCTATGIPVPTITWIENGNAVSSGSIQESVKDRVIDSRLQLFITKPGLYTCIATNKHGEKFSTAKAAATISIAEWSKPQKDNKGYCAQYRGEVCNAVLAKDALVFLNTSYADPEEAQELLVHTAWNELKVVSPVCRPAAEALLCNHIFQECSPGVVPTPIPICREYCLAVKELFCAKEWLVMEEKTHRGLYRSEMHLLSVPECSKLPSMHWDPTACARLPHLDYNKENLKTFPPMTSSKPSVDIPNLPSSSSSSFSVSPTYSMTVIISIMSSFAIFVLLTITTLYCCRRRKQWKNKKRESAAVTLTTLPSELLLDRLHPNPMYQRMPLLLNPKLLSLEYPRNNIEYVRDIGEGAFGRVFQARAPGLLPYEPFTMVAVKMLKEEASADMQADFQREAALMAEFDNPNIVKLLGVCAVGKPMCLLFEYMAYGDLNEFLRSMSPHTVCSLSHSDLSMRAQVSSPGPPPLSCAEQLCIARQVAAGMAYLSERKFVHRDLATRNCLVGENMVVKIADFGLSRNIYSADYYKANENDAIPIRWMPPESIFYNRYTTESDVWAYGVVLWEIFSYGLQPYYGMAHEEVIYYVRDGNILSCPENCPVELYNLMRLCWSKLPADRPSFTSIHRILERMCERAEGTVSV
Procedure: as §1

MAP3K11 = biological target: T9, MAP3K11 (Homo sapiens, UniProt Q16584)
T9 construct: purchased Reaction Biology Europe GmbH (formerly ProQinase)
T9 sequence (Q16584 whole entry): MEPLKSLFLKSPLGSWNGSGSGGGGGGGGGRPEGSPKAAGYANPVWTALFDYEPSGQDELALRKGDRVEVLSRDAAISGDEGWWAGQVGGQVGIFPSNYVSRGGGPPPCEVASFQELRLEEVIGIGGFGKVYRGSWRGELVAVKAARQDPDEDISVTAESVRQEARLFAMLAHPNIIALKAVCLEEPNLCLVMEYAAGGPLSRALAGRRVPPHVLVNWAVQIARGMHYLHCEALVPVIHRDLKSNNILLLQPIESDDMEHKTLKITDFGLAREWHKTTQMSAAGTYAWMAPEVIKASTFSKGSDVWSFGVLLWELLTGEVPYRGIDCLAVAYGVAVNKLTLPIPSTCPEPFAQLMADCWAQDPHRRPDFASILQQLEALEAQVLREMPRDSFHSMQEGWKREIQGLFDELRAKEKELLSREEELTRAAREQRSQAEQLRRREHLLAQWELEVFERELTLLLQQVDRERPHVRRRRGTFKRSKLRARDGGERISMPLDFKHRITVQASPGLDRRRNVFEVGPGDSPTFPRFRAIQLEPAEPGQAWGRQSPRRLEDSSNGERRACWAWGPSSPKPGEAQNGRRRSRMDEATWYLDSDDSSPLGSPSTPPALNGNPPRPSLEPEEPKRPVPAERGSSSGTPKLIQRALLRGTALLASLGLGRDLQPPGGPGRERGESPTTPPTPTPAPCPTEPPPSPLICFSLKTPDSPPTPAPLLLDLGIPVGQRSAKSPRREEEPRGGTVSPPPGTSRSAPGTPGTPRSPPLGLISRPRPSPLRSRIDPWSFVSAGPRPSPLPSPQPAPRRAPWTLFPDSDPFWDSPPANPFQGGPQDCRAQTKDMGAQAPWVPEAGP
Procedure: as §1

T1 sequence (Q00535 whole entry): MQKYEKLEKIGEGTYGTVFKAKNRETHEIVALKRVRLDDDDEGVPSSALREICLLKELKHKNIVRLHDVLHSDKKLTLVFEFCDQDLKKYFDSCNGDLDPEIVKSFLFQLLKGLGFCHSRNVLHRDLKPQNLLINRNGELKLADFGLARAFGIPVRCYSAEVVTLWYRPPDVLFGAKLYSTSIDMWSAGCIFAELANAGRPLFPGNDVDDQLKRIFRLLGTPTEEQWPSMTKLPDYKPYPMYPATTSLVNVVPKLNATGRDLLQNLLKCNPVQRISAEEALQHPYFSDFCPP
T1 sequence (Q15078 whole entry partner): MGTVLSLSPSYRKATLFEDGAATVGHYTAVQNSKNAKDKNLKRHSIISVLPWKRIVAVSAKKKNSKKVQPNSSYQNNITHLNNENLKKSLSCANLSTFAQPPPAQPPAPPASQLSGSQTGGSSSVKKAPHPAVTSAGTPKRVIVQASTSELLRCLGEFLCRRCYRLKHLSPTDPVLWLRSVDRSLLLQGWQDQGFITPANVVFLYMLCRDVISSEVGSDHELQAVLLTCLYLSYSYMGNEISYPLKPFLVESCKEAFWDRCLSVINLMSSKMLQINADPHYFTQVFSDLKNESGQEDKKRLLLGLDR

Structure (SMILES)	residual kinase activity (CDK5/p35NCK; 0.3 µM)	residual kinase activity (CAMK2A; 0.3 µM)	residual kinase activity (HIPK1; 0.3 µM)	residual kinase activity (PRKG2; 0.3 µM)	residual kinase activity (BRSK1; 0.3 µM)	residual kinase activity (MET; 0.3 µM)	residual kinase activity (MAP3K10; 0.3 µM)	residual kinase activity (MUSK; 0.3 µM)	residual kinase activity (MAP3K11; 0.3 µM)	further results
c1ccc(CNc2cc(-c3c[nH]c4ncccc34)ccn2)cc1 [meriolin 36]	0 % of control	26 % of control	47 % of control	14 % of control	89 % of control	99 % of control	50 % of control	28 % of control	45 % of control	residual kinase activity (CDK5/p35NCK; 3 µM): 0 % of control; residual kinase activity (CAMK2A; 3 µM): 2 % of control; residual kinase activity (HIPK1; 3 µM): 10 % of control; residual kinase activity (PRKG2; 3 µM): 2 % of control; residual kinase activity (BRSK1; 3 µM): 73 % of control; residual kinase activity (MET; 3 µM): 48 % of control; residual kinase activity (MAP3K10; 3 µM): 9 % of control; residual kinase activity (MUSK; 3 µM): 5 % of control; residual kinase activity (MAP3K11; 3 µM): 4 % of control
COc1ccnc2[nH]cc(-c3cc(N)nc(N)c3)c12 [meriolin 16]	1 % of control	81 % of control	10 % of control	7 % of control	97 % of control	106 % of control	76 % of control	70 % of control	74 % of control	residual kinase activity (CDK5/p35NCK; 0.03 µM): 7 % of control; residual kinase activity (CAMK2A; 0.03 µM): 103 % of control; residual kinase activity (HIPK1; 0.03 µM): 49 % of control; residual kinase activity (PRKG2; 0.03 µM): 48 % of control; residual kinase activity (BRSK1; 0.03 µM): 91 % of control; residual kinase activity (MET; 0.03 µM): 110 % of control; residual kinase activity (MAP3K10; 0.03 µM): 99 % of control; residual kinase activity (MUSK; 0.03 µM): 88 % of control; residual kinase activity (MAP3K11; 0.03 µM): 100 % of control
